Assay results taken from patent US11331299B2, “Medicinal use of serrulatane diterpenes” (The University of Sydney, priority 2016, dated 2022).
Where two headings read alike, the source gives them in different places.

How the values were obtained:
[1] = biological target: Lipid Peroxidase; test: Lipid Peroxidase; format: biochemical, Dunkin Hartley Guinea pig; details: concentration-response 10 to 0.01 μM
[2] = biological target: adenosine A3 (h) (Homo sapiens, UniProt P0DMS8); test: Bioprint radioligand binding assay
[3] = biological target: cholecystokinin CCK1 (CCKA) (h) (Homo sapiens, UniProt P32238); test: Bioprint radioligand binding assay
[4] = biological target: histamine H1 (h) (Homo sapiens, UniProt P35367); test: Bioprint radioligand binding assay
[5] = biological target: melatonin MT1 (ML1A) (h) (Homo sapiens, UniProt P48039); test: Bioprint radioligand binding assay
[6] = biological target: norepinephrine transporter (h) (Homo sapiens, UniProt P23975); test: biochemical; format: binding
[7] = biological target: PPARgamma (h) (Homo sapiens, UniProt P37231); test: Bioprint radioligand binding assay
[8] = system: 4 normal cell types, CCD 841 CoN, HMEC, HREC and Wi38; test: OncoPanel normal cell proliferation assay (3-day), panel; format: cell-based; details: all 4 cell lines
[9] = system: HMEC; test: OncoPanel normal cell proliferation assay (3-day); format: cell-based; details: Homo sapiens, 72 h, HMEC, mammary epithelial, 3-day incubation
[10] = system: Wi38; test: OncoPanel normal cell proliferation assay (3-day); format: cell-based; details: Homo sapiens, WI-38, 72 h, Wi38, lung fibroblast, 3-day incubation
[11] = Keratinocyte cell viability, CCL2 assay (assay number 1243); format: cell-based, human; details: human; read-out: Inhibition of cell viability, Max Effect
[12] = system: primary human keratinocytes; test: as above; format: cell-based; details: Homo sapiens, Keratinocyte; read-out: Inhibition of cell viability, Rel EC50
[13] = system: IL-8 release from IL-17A and TNFα-induced primary human keratinocytes; test: Keratinocyte IL-8 release (assay number 1250); format: cell-based
[14] = system: IL-17A secretion from human PBMC stimulated with antiCD3/antiCD28-coated beads; test: PBMC IL-17 assay (assay number 1321); format: cell-based
[15] = system: IL-2 secretion from human CD4-positive T-cells stimulated with antiCD2/antiCD3/antiCD28-coated beads; test: T-cell IL-2 assay; format: cell-based
[16] = system: human pancreatic carcinoma MIA PaCa-2; details: for % T/C / % TGI / Tumor Volume, Mean: 100 mg/kg QWK x 3 IP
[17] = biological target: hDNMT3a (Homo sapiens, UniProt Q9Y6K1); details: read-out: Reference: IC50; cited from earlier work
[18] = biological target: MLL3(h) complex (Homo sapiens, UniProt Q8NEZ4); details: read-out: Reference: (IC50 not given); cited from earlier work
[19] = system: MLL4(h) complex; details: read-out: Reference: (IC50 not given); cited from earlier work
[20] = biological target: NSD1 (h) (Homo sapiens, UniProt Q96L73); details: read-out: Reference: (IC50 not given); cited from earlier work
[21] = biological target: PRMT3 (h) (Homo sapiens, UniProt O60678); details: read-out: Reference: (IC50 not given); cited from earlier work
[22] = biological target: SETD2(h) (Homo sapiens, UniProt Q9BYW2); details: read-out: Reference: (IC50 not given); cited from earlier work
[23] = biological target: T1, SETD7 (h) (Homo sapiens, UniProt Q8WTS6); details: read-out: Reference: (IC50 not given); cited from earlier work
T1 sequence (Q8WTS6 1-366): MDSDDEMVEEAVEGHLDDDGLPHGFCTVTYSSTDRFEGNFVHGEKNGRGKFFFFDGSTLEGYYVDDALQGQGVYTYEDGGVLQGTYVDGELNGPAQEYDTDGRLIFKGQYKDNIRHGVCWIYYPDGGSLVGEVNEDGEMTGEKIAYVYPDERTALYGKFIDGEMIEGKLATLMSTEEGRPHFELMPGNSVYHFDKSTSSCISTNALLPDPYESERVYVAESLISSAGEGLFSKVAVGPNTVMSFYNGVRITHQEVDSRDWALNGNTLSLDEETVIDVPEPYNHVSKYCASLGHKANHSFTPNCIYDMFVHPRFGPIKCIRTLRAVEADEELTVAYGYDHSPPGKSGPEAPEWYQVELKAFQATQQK

[24] = biological target: SUV4-20H2 (h) (Homo sapiens, UniProt Q86Y97); details: read-out: Reference: (IC50 not given); cited from earlier work
[25] = read-out: % inhibition of control specific binding

Sequence of histamine H1 (h) (P35367 whole entry): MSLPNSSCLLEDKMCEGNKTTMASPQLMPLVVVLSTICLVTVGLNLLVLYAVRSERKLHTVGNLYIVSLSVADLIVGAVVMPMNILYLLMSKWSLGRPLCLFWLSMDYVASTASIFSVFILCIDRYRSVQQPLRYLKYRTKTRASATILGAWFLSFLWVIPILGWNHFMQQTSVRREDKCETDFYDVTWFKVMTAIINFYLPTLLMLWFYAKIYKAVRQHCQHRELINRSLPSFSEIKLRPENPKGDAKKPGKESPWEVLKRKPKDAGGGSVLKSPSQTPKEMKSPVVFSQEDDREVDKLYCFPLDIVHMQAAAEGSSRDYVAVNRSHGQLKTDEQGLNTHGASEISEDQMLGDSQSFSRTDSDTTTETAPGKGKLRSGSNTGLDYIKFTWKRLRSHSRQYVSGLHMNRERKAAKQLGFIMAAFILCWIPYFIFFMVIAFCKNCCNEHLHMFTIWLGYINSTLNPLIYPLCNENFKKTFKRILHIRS
Sequence of PPARgamma (h) (P37231 whole entry): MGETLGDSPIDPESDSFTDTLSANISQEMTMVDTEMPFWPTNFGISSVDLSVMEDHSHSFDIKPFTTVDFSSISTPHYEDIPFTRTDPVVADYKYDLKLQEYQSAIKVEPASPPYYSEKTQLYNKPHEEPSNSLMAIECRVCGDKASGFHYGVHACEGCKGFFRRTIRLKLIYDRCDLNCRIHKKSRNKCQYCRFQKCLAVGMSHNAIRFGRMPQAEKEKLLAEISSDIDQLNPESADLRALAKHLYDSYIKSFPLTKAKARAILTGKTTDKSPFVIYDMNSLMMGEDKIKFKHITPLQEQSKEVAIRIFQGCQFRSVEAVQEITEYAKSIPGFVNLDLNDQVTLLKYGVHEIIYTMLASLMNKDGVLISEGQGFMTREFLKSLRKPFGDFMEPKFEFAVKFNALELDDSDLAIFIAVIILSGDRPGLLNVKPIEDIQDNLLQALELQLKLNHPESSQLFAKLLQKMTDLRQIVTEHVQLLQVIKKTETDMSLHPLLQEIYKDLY
Sequence of adenosine A3 (h) (P0DMS8 whole entry): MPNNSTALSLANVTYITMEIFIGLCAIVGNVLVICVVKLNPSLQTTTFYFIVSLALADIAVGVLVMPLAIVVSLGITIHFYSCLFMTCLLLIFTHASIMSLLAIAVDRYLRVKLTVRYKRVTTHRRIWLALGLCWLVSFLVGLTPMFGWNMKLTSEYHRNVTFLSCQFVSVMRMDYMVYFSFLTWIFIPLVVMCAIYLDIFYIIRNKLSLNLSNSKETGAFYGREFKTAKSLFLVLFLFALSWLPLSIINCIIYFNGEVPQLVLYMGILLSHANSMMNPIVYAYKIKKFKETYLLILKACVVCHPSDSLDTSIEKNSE
Sequence of cholecystokinin CCK1 (CCKA) (h) (P32238 whole entry): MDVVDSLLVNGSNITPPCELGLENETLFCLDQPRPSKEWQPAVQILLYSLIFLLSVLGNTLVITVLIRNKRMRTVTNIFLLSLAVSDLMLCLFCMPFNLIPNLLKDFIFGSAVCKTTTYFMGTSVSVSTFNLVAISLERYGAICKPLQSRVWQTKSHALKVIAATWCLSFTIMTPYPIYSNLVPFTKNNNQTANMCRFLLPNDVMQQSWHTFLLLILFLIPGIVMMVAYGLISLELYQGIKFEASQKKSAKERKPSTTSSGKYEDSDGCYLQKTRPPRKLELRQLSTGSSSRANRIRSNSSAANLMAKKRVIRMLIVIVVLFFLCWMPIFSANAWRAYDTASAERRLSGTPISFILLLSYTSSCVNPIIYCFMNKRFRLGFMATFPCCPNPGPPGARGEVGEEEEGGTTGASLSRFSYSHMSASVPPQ
Sequence of norepinephrine transporter (h) (P23975 whole entry): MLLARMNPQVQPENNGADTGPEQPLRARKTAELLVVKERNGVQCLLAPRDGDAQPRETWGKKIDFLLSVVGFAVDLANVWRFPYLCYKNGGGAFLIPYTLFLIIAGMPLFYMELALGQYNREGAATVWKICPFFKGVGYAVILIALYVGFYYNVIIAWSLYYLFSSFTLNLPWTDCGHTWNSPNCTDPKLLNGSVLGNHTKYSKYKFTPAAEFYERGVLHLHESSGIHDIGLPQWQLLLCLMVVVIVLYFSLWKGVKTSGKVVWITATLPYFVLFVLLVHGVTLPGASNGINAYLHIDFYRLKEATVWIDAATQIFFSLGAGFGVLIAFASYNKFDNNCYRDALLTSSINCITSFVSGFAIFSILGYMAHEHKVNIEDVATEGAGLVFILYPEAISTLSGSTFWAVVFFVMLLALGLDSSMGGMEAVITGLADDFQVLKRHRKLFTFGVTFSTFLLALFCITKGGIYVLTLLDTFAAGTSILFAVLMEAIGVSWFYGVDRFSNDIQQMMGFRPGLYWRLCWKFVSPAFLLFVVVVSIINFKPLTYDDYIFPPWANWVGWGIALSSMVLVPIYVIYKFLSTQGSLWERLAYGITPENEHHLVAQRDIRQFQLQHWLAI
Sequence of melatonin MT1 (ML1A) (h) (P48039 whole entry): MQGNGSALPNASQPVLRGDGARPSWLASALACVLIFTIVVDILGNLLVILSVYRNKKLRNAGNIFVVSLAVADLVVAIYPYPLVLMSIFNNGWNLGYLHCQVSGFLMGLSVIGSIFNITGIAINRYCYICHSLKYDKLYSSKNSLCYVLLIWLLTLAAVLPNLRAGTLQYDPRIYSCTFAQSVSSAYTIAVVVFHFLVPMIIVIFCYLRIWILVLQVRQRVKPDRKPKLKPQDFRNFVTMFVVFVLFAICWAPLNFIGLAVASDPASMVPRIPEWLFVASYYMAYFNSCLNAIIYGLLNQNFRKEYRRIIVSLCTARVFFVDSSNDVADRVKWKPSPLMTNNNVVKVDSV
Sequence of SUV4-20H2 (h) (Q86Y97 whole entry): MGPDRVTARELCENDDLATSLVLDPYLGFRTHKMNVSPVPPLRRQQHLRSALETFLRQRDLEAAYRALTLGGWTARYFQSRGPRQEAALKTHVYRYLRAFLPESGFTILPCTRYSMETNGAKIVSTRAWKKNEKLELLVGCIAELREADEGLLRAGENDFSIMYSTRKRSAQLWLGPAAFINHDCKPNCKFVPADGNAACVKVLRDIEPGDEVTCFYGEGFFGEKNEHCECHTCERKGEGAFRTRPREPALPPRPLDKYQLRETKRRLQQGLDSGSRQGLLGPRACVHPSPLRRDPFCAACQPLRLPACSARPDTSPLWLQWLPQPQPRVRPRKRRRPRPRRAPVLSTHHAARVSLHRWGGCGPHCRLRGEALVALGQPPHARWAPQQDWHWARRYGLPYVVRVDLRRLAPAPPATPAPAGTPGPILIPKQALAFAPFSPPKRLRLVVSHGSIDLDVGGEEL
Sequence of PRMT3 (h) (O60678 whole entry): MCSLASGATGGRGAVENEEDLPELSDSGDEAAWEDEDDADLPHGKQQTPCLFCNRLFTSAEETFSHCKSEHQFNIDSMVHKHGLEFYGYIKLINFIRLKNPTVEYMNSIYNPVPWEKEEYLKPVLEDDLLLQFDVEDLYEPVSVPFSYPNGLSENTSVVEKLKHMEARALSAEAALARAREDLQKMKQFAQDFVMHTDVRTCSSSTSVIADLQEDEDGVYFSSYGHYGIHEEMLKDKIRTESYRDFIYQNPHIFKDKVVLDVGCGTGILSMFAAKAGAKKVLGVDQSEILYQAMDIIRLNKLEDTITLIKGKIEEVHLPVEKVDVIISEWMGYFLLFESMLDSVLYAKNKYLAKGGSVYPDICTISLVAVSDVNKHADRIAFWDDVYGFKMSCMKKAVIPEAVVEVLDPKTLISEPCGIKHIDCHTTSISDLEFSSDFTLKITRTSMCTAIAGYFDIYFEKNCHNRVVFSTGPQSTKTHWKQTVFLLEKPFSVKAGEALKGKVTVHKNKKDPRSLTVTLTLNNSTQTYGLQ
Sequence of hDNMT3a (Q9Y6K1 whole entry, looked up): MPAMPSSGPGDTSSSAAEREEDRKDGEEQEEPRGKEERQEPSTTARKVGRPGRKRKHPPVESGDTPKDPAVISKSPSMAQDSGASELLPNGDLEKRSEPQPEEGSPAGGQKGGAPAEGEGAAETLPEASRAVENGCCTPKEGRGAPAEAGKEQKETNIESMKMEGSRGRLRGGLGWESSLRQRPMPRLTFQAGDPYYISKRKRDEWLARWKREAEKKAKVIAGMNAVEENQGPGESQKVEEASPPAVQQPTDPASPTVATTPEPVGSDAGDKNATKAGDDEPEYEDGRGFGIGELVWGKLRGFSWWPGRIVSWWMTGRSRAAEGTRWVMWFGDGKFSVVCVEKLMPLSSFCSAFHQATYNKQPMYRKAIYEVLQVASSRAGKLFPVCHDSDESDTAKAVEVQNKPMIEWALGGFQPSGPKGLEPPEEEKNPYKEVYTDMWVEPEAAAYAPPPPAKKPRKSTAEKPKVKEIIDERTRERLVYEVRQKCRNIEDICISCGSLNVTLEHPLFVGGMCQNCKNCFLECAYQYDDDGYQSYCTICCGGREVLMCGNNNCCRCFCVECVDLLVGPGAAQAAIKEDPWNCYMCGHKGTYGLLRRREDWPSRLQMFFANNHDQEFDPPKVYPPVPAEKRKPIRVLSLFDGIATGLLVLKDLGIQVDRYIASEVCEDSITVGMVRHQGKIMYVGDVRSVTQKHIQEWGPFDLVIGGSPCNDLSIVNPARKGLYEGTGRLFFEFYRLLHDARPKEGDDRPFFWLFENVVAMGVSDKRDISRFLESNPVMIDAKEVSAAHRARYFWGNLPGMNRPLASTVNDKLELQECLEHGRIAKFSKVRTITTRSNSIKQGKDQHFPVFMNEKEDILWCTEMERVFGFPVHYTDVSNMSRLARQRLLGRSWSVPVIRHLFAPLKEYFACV

## CC(C)=CCC[C@H](CO)[C@@H]1CC[C@@H](C)c2c1cc(C)c(O)c2O [Compound 1, 7,8,18-trihydroxyserrulat-14-ene]
[1]
  IC50: 1470 nM
[2]; ADENOSINE A3 (h) (agonist radioligand), read-out: % Inhibition of Control Specific Binding
  inhibition at 10 µM: 92%
[2]; [25]
  inhibition at 10 µM: 92%
[3]; CHOLECYSTOKININ CCK1 (CCKA) (h) (agonist radioligand), read-out: % Inhibition of Control Specific Binding
  inhibition at 10 µM: 81%
[3]; [25]
  inhibition at 10 µM: 81%
[4]; HISTAMINE H1 (h) (antagonist radioligand), read-out: % Inhibition of Control Specific Binding
  inhibition at 10 µM: 64%
[4]; [25]
  inhibition at 10 µM: 64%
[5]; 10 μM, read-out: % inhibition of control specific binding
  inhibition at 10 µM: 91%
[5]; read-out: % Inhibition of Control Specific Binding
  inhibition at 10 µM: 91%
[6]; norepinephrine transporter (h) (antagonist radioligand), read-out: % Inhibition of Control Specific Binding
  inhibition at 10 µM: 76%
[6]; [25]
  inhibition at 10 µM: 76%
[7]; PPARgamma (h) (agonist radioligand), read-out: % Inhibition of Control Specific Binding
  inhibition at 10 µM: 91%
[7]; [25]
  inhibition at 10 µM: 91%
[8]
  toxicity towards normal cells: relatively low toxicity
[9]; read-out: Cell Count EC50
  EC50: 30 µM
[9]; read-out: Cell Count GI50
  GI50: 6.39 µM
[9]; read-out: Cell Count IC50
  IC50: 30 µM
[10]; read-out: Cell Count EC50
  EC50: 5.45 µM
[10]; read-out: Cell Count GI50
  GI50: 5.92 µM
[10]; read-out: Cell Count IC50
  IC50: 10.4 µM
[11]
  cytotoxicity: 103%
[12]
  EC50: 708 nM
[13]; read-out: Inhibition of IL-8 release, Max Effect
  Emax: 110%
[13]; read-out: Inhibition of IL-8 release, Rel EC50
  EC50: 157 nM
[14]; read-out: Inhibition of IL-17A release, Max Effect
  Emax: 100%
[14]; read-out: Inhibition of IL-17A release, Rel EC50
  EC50: 320 nM
[15]; read-out: Inhibition of IL-2 release, Max Effect
  Emax: 98%
[15]; read-out: Inhibition of IL-2 release, Rel EC50
  EC50: 327 nM
[16]; Day 1
  % T/C: 100%
  % TGI: 0%
  Tumor Volume, Mean: 90 mm3
[16]; Day 4
  % T/C: 96%
  % TGI: 4%
  Tumor Volume, Mean: 90 mm3
[16]; Day 8
  % T/C: 101%
  % TGI: −1%
  Tumor Volume, Mean: 133 mm3
[16]; Day 11
  % T/C: 107%
  % TGI: −7%
  Tumor Volume, Mean: 211 mm3
[16]; Day 15
  % T/C: 92%
  % TGI: 8%
  Tumor Volume, Mean: 345 mm3
[16]; in combination with gemcitabine
  anti-cancer activity: effective in combination with gemcitabine

## Nc1ncnc2c1ncn2[C@@H]1O[C@H](CSCC[C@H](N)C(=O)O)[C@@H](O)[C@H]1O [SAH]
[17]
  IC50: 52 nM
[18]
  IC50: 970 nM
[19]
  IC50: 970 nM
[20]
  IC50: 970 nM
[21]
  IC50: 860 nM
[22]
  IC50: 1200 nM
[23]
  IC50: 24 µM
[24]
  IC50: 24 µM
